Results published in US10538491B2, “4,5-substituted picolinamide and picolinonitrile metabotropic glutamate receptor 2 negative allosteric modulators” (Vanderbilt University, priority 2015, dated 2020).
pIC50: −log10 of the molar value. Where two headings read alike, the source gives them in different places.

Columns and labels:
mouse = mouse TST, normal animals; cited from earlier work
[1] = tested on: central mGlu2 and mGlu3 receptors; conditions: in vivo; cited from earlier work
rat = rat FST, normal animals; cited from earlier work
C57Bl6/J mice = conditions: FST; cited from earlier work
mice = conditions: cited from earlier work
[2] = tested on: Aβ-induced neurodegeneration; conditions: cited from earlier work
Helpless (H) mice = conditions: cited from earlier work; for activity in the tail suspension test: Helpless (H) mice
[3] = CFS model; cited from earlier work
[4] = tested on: group II mGlu receptors (mGlu2 and mGlu3); conditions: cited from earlier work
[5] = treatment for 7 days; cited from earlier work
[6] = tested on: olfactory bulbectomized rats; conditions: repeated administration for 14 days; cited from earlier work
[7] = tested on: social isolation reared mice; conditions: cited from earlier work
rat mGlu2 = rat mGlu2 (Rattus norvegicus (Rat), UniProt P31421); assay: mGlu2 Ca2+ flux assay; type: cell-based; conditions: for pIC50: Gα15 HEK293 cells stably expressing rat mGlu2, glutamate EC80, >10,000 = no plateau, >30,000 = no measurable activity; for rat mGlu2 Glu max / remaining activity at 30 µM: amplitude of response in the presence of 30 μM test compound as percentage of maximal response to glutamate; for remaining activity at 30 µM: read-out: rat mGlu2 Glu max; for NAM designation: concentration-dependent decrease in the glutamate EC80 response
Sequence of rat mGlu2 (P31421 19-872): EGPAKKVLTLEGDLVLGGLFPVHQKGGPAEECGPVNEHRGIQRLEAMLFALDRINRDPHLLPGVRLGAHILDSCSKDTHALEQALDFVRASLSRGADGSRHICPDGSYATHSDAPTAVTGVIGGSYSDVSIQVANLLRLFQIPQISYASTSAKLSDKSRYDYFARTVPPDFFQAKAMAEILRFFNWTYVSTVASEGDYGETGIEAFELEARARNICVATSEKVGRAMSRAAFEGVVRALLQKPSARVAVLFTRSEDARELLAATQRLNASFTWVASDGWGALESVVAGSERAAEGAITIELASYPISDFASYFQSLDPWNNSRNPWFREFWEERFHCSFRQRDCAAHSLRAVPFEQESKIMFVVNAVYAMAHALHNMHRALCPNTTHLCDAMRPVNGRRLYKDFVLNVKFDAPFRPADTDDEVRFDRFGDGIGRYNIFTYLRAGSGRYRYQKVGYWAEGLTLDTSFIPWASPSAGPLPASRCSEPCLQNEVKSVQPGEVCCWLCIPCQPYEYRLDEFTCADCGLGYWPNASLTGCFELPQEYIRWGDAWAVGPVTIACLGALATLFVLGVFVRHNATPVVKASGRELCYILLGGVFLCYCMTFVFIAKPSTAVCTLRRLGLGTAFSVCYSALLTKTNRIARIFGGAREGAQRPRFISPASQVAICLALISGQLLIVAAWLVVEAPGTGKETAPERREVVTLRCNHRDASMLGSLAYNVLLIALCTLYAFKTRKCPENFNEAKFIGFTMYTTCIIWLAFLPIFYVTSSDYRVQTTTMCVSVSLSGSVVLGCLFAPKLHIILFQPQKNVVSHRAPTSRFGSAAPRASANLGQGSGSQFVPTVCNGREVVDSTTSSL
Method in brief: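 Gα15 HEK293 cells stably expressing rat mGlu2, Fluo-4 loaded; compound added, then glutamate at EC20 after 2.3 min and EC80 afterward, calcium flux read as F/F0. Peak amplitude around EC80 addition normalized to glutamate max; IC50 by unconstrained 4-parameter fit, top concentration 30 μM.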

SMILES | pIC50 (rat mGlu2) | remaining activity at 30 µM (rat mGlu2) [%] | other results
N[C@](CC1c2ccccc2Oc2ccccc21)(C(=O)O)[C@H]1C[C@@H]1C(=O)O [LY341495] | – | – | antidepressant-like effects (mouse): Antidepressant-like effects; hypolocomotor effect of mGlu2/3 agonist (LY379268) [1]: achieved the same result; antidepressant-like effects (rat): Antidepressant-like effects; immobility time (C57Bl6/J mice): dose-dependently reduced immobility time; marble-burying behavior (mice): significantly reduce marble-burying behavior; effect on LY566332-amplified Aβ-induced neurodegeneration [2]: prevented; activity in the tail suspension test (Helpless (H) mice): active; antidepressant effect in helpless mice (Helpless (H) mice; acute administration): potent antidepressant effect
CNCCC(Oc1ccc(C(F)(F)F)cc1)c1ccccc1 (stereo not shown) [fluoxetine] | – | – | antidepressant effect in helpless mice (Helpless (H) mice; chronic (21 days) treatment): full antidepressant effect
CN1C(=O)CN=C(c2ccccc2)c2cc(Cl)ccc21 [diazepam] | – | – | freezing behavior [3]: significantly decreased freezing behavior
CCCCCCCOC(=O)[C@@]1(F)[C@@H]2C[C@@H](OCc3ccc(Cl)c(Cl)c3)[C@@](N)(C(=O)O)[C@@H]21 [BCI-838] | – | – | duration of inhibition of group II mGlu receptors by brain concentration of active metabolite BCI-632 ([4]; once-daily dosing of oral prodrug): 22 h; learning and memory impairment ([4]; three months of treatment, Dutch APP transgenic mice): reversed Dutch APP transgene-associated learning and memory impairment; levels of monomeric and oAβ peptides in hippocampus and cortex ([4]; three months of treatment, two AD mouse models): decreased the levels of monomeric and oAβ peptides; anxiolytic effects ([4]; three months of treatment): anxiolytic effects; hippocampal progenitor cell proliferation ([4]; wild-type and Alzheimer's diseased mice, 3 months): stimulated hippocampal progenitor cell proliferation
Cc1cc(-c2cccc(C3=Nc4cc(C)c(C(F)(F)F)cc4NC(=O)C3)c2)cc(C)n1 [RO4491533] | – | – | hypolocomotor effect of mGlu2/3 agonist (LY379268) [1]: reversed the hypolocomotor effect; immobility time (C57Bl6/J mice): dose-dependently reduced immobility time; activity in the tail suspension test (Helpless (H) mice): active
CCS(=O)(=O)N(Cc1cccnc1)c1cccc(-c2ccc(C#N)cc2)c1 [LY566332] | – | – | Aβ-induced neurodegeneration [2]: amplified Aβ-induced neurodegeneration
N[C@]1(C(=O)O)[C@H]2[C@@H](C[C@H]1OCc1ccc(Cl)c(Cl)c1)[C@]2(F)C(=O)O [MGS0039] | – | – | antidepressant-like effects (mouse): Antidepressant-like effects; number of escape failures [5]: significantly reduced the number of escape failures; antidepressant-like effects (rat): Antidepressant-like effects; marble-burying behavior (mice): reduced marble-burying behavior; spontaneous locomotor activity (mice): no significant change; hyperactivity in the open field test [6]: attenuated the hyperactivity; learning deficit in the passive avoidance test [6]: attenuated the learning deficit; immobility in the FST [7]: reversed the increased immobility; freezing behavior [3]: significantly decreased freezing behavior
Cc1ccc(OCCCOc2cnc(C(N)=O)cc2-c2ccc(F)cc2)cn1 [Compound 129] | 5.54 | – | rat mGlu2 Glu max (rat mGlu2): 2.91%
NC(=O)c1cc(-c2ccc(F)cc2)c(OCCOc2ccc(F)nc2)cn1 [Compound 113] | 6.30 | – | rat mGlu2 Glu max (rat mGlu2): 1.38 (n = 2) %
NC(=O)c1cc(-c2ccc(F)cc2)c(OCc2cccc(Br)c2F)cn1 [Compound 81, 5-((3-bromo-2-fluorobenzyl)oxy)-4-(4-fluorophenyl)picolinamide] | 5.82 | 2.19 | –
C[C@@H]1CN(CCCOc2cnc(C(N)=O)cc2-c2ccc(F)cc2)C[C@H](C)O1 [Compound 99, 5-(3-((cis)-2,6-dimethylmorpholino)propoxy)-4-(4-fluorophenyl)picolinamide] | < 5.00 | 15.8 | –
COc1ccc(-c2cc(C(N)=O)ncc2OCc2ccc(C(F)(F)F)nc2)c(F)c1 [Compound 86, 4-(2-fluoro-4-methoxyphenyl)-5-((6-(trifluoromethyl)pyridin-3-yl)methoxy)picolinamide] | 6.36 | 1.16 | –
CC(COc1cnc(C(N)=O)cc1-c1ccc(F)cc1)Oc1cccnc1 (stereo not shown) [Compound 123, 4-(4-fluorophenyl)-5-(2-(pyridin-3-yloxy)propoxy)picolinamide] | 5.82 | 0.37 | –
N#Cc1cc(-c2ccc(F)cc2)c(OCc2ccncc2)cn1 [Compound 17, 4-(4-fluorophenyl)-5-(pyridin-4-ylmethoxy)picolinonitrile] | 5.80 | 62 | NAM designation (rat mGlu2): (Partial NAM)
CC1CN(CCCOc2cnc(C(N)=O)cc2-c2ccc(F)cc2)CCO1 (stereo not shown) [Compound 97, 4-(4-fluorophenyl)-5-(3-(2-methylmorpholino)propoxy)picolinamide] | < 5.00 | 22 | –
NC(=O)c1cc(-c2ccc(F)cc2)c(OCc2ccc3nccn3c2)cn1 [Compound 50, 4-(4-fluorophenyl)-5-(imidazo[1,2-a]pyridin-6-ylmethoxy)picolinamide] | 6.89 | 1.41 | –
CC(CNc1cnc(C(N)=O)cc1-c1ccc(F)cc1)N1CCOCC1 (stereo not shown) [Compound 135, 4-(4-fluorophenyl)-5-((2-morpholinopropyl)amino)picolinamide] | 5.24 | 1.19 | –
N#Cc1cc(-c2ccc(F)cc2)c(OCCOCc2ccccc2)cn1 [Compound 29, 5-(2-(benzyloxy)ethoxy)-4-(4-fluorophenyl)picolinonitrile] | 5.37 | 65.2 | NAM designation (rat mGlu2): (Partial NAM)
Cc1cc(COc2cnc(C(N)=O)cc2-c2ccc(F)cc2)ccn1 [Compound 45, 4-(4-fluorophenyl)-5-((2-methylpyridin-4-yl)methoxy)picolinamide] | 6.71 | 1.17 | –
CC(COc1cnc(C(N)=O)cc1-c1ccc(F)cc1)Oc1ccnc(C(F)(F)F)c1 (stereo not shown) [Compound 124, 4-(4-fluorophenyl)-5-(2-((2-(trifluoromethyl)pyridin-4-yl)oxy)propoxy)picolinamide] | 6.08 | 0.75 | –
NC(=O)c1cc(-c2ccc(F)cc2)c(N2CCC(Oc3ccnc(C(F)(F)F)c3)CC2)cn1 [Compound 138, 4-(4-fluorophenyl)-5-(4-((2-(trifluoromethyl)pyridin-4-yl)oxy)piperidin-1-yl)picolinamide] | < 5.00 | – | –
CC(CN1CCOCC1)Nc1cnc(C(N)=O)cc1-c1ccc(F)cc1 (stereo not shown) [Compound 134, 4-(4-fluorophenyl)-5-((1-morpholinopropan-2-yl)amino)picolinamide] | 5.57 | -3.71 | –
N#Cc1cc(-c2ccc(F)cc2)c(OCCCN2CCC(F)(F)CC2)cn1 [Compound 74, 5-(3-(4,4-difluoropiperidin-1-yl)propoxy)-4-(4-fluorophenyl)picolinonitrile] | < 5.00 | 49.6 | –
NC(=O)c1cc(-c2ccc(F)cc2)c(OCc2cccc(Br)c2)cn1 [Compound 34, 5-((3-bromobenzyl)oxy)-4-(4-fluorophenyl)picolinamide] | 5.80 | 10.1 | –
NC(=O)c1cc(-c2ccc(F)cc2)c(OCc2cncs2)cn1 [Compound 51, 4-(4-fluorophenyl)-5-(thiazol-5-ylmethoxy)picolinamide] | 6.58 | 1.01 | –
Cc1ncc(OCCOc2cnc(C(N)=O)cc2-c2ccc(F)cc2)cn1 [Compound 119, 4-(4-fluorophenyl)-5-(2-((2-methylpyrimidin-5-yl)oxy)ethoxy)picolinamide] | < 5.00 | 20.3 | –
